Measured values published in patent US9951028B2, “Agricultural chemicals” (REDAG CROP PROTECTION LTD, priority 2013, dated 2018).

How the values were obtained:
Format in all cases: in vivo
[1] = system: A. retroflexus, A. theophrasti, C. bursa pastoris; test: Herbicidal efficacy screen, text summary of table 2 over all target weed species; conditions: certain weed species, after 1 day
Excerpt: (§1) Certain compounds of the invention were screened for herbicidal efficacy against target plants: Amaranthus retroflexus (redroot pigweed), Abutilon theophrasti (China Jute): Capsella bursa-pastoris, (shepherd's-purse) Echinochloa crus-galli, Hordeum vulgare (Barley),

[2] = system: Amaranthus retroflexus (redroot pigweed); test: Herbicidal efficacy screen, corrected necrosis
[3] = system: Capsella bursa-pastoris, (shepherd's-purse); test: Herbicidal efficacy screen, corrected necrosis
[4] = system: Abutilon theophrasti (China Jute); test: Herbicidal efficacy screen, corrected necrosis; conditions: for control over A. theophrasti: after 10 days, Table 5
[5] = system: A. theophrasti, E. crus galli, H. vulgare; test: Herbicidal efficacy screen, summary of tables 3-5 over all target weed species; conditions: table 3
Excerpt: as §1

[6] = system: Echinochloa crus-galli; test: Herbicidal efficacy screen, corrected necrosis; conditions: Table 5; for control over E. crus galli: after 10 days
[7] = system: Hordeum vulgare (Barley); test: Herbicidal efficacy screen, corrected necrosis; conditions: Table 5
[8] = 6.25 g/ha, day 1 post application
[9] = 6.25 g/ha, day 7 post application
[10] = 12.5 g/ha, day 1 post application
[11] = 12.5 g/ha, day 7 post application
[12] = 25 g/ha, day 1 post application
[13] = 25 g/ha, day 7 post application
[14] = 50 g/ha, day 1 post application
[15] = 50 g/ha, day 7 post application
[16] = 100 g/ha, day 1 post application
[17] = 100 g/ha, day 7 post application

Compound: CC(C)C(C)S(=O)(=O)NC(=O)c1cc(-n2c(=O)cc(C(F)(F)F)n(C)c2=O)c(F)cc1Cl (stereo not shown) [Compound 26, 2-Chloro-N-(1,2-dimethylpropylsulfonyl)-4-fluoro-5-[3-methyl-2,6-dioxo-4-(trifluoromethyl)pyrimidin-1-yl]benzamide]
- control compared with the reference compound (saflufenacil) [1]: better control
- Average of corrected necrosis [2, 8]: C (C represents a percentage increase in necrosis relative to the control of 0.1-50)
- Average of corrected necrosis [2, 9]: A (A represents a percentage inhibition of 80-100)
- Average of corrected necrosis [2, 10]: C (C represents a percentage increase in necrosis relative to the control of 0.1-50)
- Average of corrected necrosis [2, 11]: A (A represents a percentage inhibition of 80-100)
- Average of corrected necrosis [2, 12]: C (C represents a percentage increase in necrosis relative to the control of 0.1-50)
- Average of corrected necrosis [2, 13]: A (A represents a percentage inhibition of 80-100)
- Average of corrected necrosis [2, 14]: C (C represents a percentage increase in necrosis relative to the control of 0.1-50)
- Average of corrected necrosis [2, 15]: A (A represents a percentage inhibition of 80-100)
- Average of corrected necrosis [2, 16]: C (C represents a percentage increase in necrosis relative to the control of 0.1-50)
- Average of corrected necrosis [2, 17]: A (A represents a percentage inhibition of 80-100)
- Average of corrected necrosis [3, 8]: C (C represents a percentage increase in necrosis relative to the control of 0.1-50)
- Average of corrected necrosis [3, 9]: A (A represents a percentage inhibition of 80-100)
- Average of corrected necrosis [3, 10]: C (C represents a percentage increase in necrosis relative to the control of 0.1-50)
- Average of corrected necrosis [3, 11]: 0%
- Average of corrected necrosis [3, 12]: C (C represents a percentage increase in necrosis relative to the control of 0.1-50)
- Average of corrected necrosis [3, 13]: A (A represents a percentage inhibition of 80-100)
- Average of corrected necrosis [3, 14]: C (C represents a percentage increase in necrosis relative to the control of 0.1-50)
- Average of corrected necrosis [3, 15]: A (A represents a percentage inhibition of 80-100)
- Average of corrected necrosis [3, 16]: C (C represents a percentage increase in necrosis relative to the control of 0.1-50)
- Average of corrected necrosis [3, 17]: A (A represents a percentage inhibition of 80-100)
- Average of corrected necrosis [4, 8]: C (C represents a percentage increase in necrosis relative to the control of 0.1-50)
- Average of corrected necrosis [4, 9]: A (A represents a percentage inhibition of 80-100)
- Average of corrected necrosis [4, 10]: 0%
- Average of corrected necrosis [4, 11]: A (A represents a percentage inhibition of 80-100)
- Average of corrected necrosis [4, 12]: C (C represents a percentage increase in necrosis relative to the control of 0.1-50)
- Average of corrected necrosis [4, 13]: A (A represents a percentage inhibition of 80-100)
- Average of corrected necrosis [4, 14]: C (C represents a percentage increase in necrosis relative to the control of 0.1-50)
- Average of corrected necrosis [4, 15]: A (A represents a percentage inhibition of 80-100)
- Average of corrected necrosis [4, 16]: B (B represents a percentage inhibition of 50-80)
- Average of corrected necrosis [4, 17]: A (A represents a percentage inhibition of 80-100)

Compound: C#CC(c1ccc(F)cc1)C(CC(=O)OCC)c1c(F)cccc1F (stereo not shown) [Compound 37, Ethyl 3-(2,6-difluorophenyl)-4-(4-fluorophenyl)hex-5-ynoate]
- control compared with prior art compounds 27 and 27a [5]: significantly better control
- control over all three weed species [5]: excellent control

Compound: CSc1c(C(F)(F)F)ccc(CNc2nonc2C)c1C [Compound 47, 4-Methyl-N-[[2-methyl-3-methylsulfanyl-4-(trifluoromethyl)phenyl]methyl]-1,2,5-oxadiazol-3-amine]
- control over E. crus galli [6]: good control
- control of E. crus galli relative to the reference compound 48 ([6]; at low dosages): improved control
- control over H. vulgare [7]: good control
- control of H. vulgare relative to the reference compound 48 ([7]; at low dosages): improved control
- control over A. theophrasti [4]: good control

Compound: CSc1c(C(F)(F)F)ccc(C(=O)Nc2nonc2C)c1C [Compound 48, 2-Methyl-N-(4-methyl-1,2,5-oxadiazol-3-yl)-3-methylsulfanyl-4-(trifluoromethyl)benzamide, reference compound]
- control over E. crus galli [6]: good control
- control over A. theophrasti [4]: good control
